Consider five compounds from ChEMBL document CHEMBL1201862, “PubChem BioAssay data set” (2004).

The target in assay [1] is T1, Tyrosyl-DNA phosphodiesterase 2 (Homo sapiens, UniProt O95551).
T1 sequence (O95551 whole entry): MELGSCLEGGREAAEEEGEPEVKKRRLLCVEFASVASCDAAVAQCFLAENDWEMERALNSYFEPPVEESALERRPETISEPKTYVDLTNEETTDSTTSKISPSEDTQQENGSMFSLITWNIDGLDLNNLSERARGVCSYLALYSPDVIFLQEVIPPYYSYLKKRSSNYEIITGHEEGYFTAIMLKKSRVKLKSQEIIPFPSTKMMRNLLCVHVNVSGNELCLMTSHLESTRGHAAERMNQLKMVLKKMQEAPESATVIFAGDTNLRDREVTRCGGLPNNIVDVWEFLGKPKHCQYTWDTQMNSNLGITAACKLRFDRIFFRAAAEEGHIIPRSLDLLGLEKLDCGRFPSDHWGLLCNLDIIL
Nature of the assay: human TDP2 enzyme inhibitors, dose response, biochemical, epi absorbance, IC50 (AID 743297).

Another assay deals with SUMO-activating enzyme (Homo sapiens, UniProt Q9UBT2). As to the kind of experiment: SUMOylation inhibitor hit validation, confirmation, SUMOylation inhibitor project, biochemical, AlphaScreen (AID 2018). It is filed as functional. On the technique in general: Alpha assays give light when donor and acceptor beads are brought close together.
Another assay concerns the target T2, Caspase-3 (Homo sapiens, UniProt P42574).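 Note: Dose-response selectivity test against caspase-3 for candidate inhibitors of sentrin-specific proteases (SENPs).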
T2 sequence (P42574 whole entry): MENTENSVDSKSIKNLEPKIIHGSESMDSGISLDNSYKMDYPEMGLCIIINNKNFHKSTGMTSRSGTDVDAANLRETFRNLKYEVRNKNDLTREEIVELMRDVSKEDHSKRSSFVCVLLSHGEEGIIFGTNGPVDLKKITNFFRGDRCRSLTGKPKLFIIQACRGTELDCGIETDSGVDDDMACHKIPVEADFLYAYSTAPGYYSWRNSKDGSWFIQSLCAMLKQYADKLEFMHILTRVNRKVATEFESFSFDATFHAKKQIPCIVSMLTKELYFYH
Format: functional.

For assay [2], the target named is T3, Histone-lysine N-methyltransferase NSD2 (Homo sapiens, UniProt O96028).
T3 sequence (O96028 whole entry): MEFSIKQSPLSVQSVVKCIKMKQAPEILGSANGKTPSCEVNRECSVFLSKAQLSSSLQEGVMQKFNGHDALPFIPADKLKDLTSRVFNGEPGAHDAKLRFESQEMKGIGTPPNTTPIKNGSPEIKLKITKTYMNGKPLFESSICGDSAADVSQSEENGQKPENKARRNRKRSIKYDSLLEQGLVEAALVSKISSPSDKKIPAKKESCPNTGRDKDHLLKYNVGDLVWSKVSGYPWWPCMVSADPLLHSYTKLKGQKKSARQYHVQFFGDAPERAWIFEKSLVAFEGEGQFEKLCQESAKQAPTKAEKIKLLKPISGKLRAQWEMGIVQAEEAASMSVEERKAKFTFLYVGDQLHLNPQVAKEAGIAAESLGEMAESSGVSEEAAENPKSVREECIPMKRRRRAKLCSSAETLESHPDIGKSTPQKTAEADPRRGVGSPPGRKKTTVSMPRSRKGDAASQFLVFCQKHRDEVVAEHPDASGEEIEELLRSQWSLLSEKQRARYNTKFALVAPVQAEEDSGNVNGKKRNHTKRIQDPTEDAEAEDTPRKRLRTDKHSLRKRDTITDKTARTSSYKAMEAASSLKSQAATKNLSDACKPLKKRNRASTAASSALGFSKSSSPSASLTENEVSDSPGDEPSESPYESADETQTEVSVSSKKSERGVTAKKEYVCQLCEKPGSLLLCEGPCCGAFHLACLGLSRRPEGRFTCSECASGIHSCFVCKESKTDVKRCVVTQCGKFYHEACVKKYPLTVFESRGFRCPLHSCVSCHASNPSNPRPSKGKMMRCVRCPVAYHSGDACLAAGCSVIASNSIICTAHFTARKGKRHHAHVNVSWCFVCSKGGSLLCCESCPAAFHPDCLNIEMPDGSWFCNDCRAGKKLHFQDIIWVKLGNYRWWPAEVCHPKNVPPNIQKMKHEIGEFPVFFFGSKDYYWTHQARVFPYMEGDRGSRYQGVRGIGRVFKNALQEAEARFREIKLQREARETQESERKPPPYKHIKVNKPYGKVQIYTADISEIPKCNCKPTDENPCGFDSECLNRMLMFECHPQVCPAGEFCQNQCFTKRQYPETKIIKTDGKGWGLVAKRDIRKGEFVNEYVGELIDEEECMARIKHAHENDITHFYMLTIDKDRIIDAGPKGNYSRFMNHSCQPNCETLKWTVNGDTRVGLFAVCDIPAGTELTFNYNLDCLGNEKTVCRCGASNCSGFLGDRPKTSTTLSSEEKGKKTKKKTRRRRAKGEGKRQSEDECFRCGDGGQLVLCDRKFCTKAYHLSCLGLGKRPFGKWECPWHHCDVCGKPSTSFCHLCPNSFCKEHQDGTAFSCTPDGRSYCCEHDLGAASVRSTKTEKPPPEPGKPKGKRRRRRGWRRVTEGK
It is filed as biochemical.

Another assay concerns BJ. Nature of the assay: cytotoxicity toward BJ-TERT fibroblasts, dose response, cell-based, RAS-independent, luminescence (AID 1933). It is filed as functional. The conditions noted are these: Homo sapiens.
Assay [3] in a line: HepG2 cell cytotoxicity, dose response, cytotoxicity control for Shn3 inhibitor project, CellTiter-Glo, cherry-picked (AID 624134). Format: functional, cell-based. In general terms: Cellular ATP, detected with luciferase, serves as a proxy for viable cell number.
Assay [4] has as its target Dual specificity tyrosine-phosphorylation-regulated kinase 1A (Rattus norvegicus, UniProt Q63470). Format: biochemical, Homo sapiens.
Assay [5] deals with Streptococcus sp. 'group A'. Nature of the assay: growth inhibition of control SK(-) GAS strain, dose response, counter-screen for streptokinase expression inhibitor project, luminescence, kanamycin, BacTiterGlo, confirmation (AID 1900). Format: functional, organism-based. (The purpose of a counterscreen is to sort out artefacts and off-target activity.)
The next assay relates to Streptococcus. Nature of the assay: Group A Streptococcus viability loss, dose response, counter-screen for streptokinase expression inhibitor project, luminescence, BacTiterGlo (AID 1915).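 Note: potency for reduction of bacterial viability or growth.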 It is filed as functional, organism-based.
Assay [6] has as its target Phosphorylase b kinase gamma catalytic chain, liver/testis isoform (Homo sapiens, UniProt P15735). Format: functional.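 Note: PHKG2 measured as one member of a kinome-wide kinase panel.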
Assay [7] concerns the target ALK tyrosine kinase receptor (Homo sapiens, UniProt Q9UM73). It is filed as functional.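 Note: ALK tested as one member of a kinase panel screen.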
Assay [8] addresses 5'-AMP-activated protein kinase catalytic subunit alpha-1 (Homo sapiens, UniProt Q13131). It is filed as functional.
The target in assay [9] is Serine/threonine-protein kinase PLK1 (Homo sapiens, UniProt P53350). It is filed as functional.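 Note: PLK1 measured as one member of a kinome-wide profiling panel.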
Assay [10] addresses Insulin-like growth factor 1 receptor (Homo sapiens, UniProt P08069). Nature of the assay: Navigating the Kinome. Panel member name: IGF1R. Format: functional.
Assay [11] has as its target Calcium/calmodulin-dependent protein kinase type 1 (Homo sapiens, UniProt Q14012). It is filed as functional.
In assay [12] the target is Mitogen-activated protein kinase 9 (Homo sapiens, UniProt P45984). It is filed as functional.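 Note: value from a kinome panel profiling assay, MAPK9 panel entry.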
The target in assay [13] is Maternal embryonic leucine zipper kinase (Homo sapiens, UniProt Q14680). Format: functional.
The target in assay [14] is Interleukin-1 receptor-associated kinase 1 (Homo sapiens, UniProt P51617). It is filed as functional.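 Note: IRAK1 tested as one member of a kinome panel.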

As a reminder, the IC50 is the concentration at which inhibition is half-maximal. The term AC50 denotes the concentration giving half of the maximal activity seen. One may read the EC50 as the concentration at which the effect is half-maximal. The Ki is a dissociation constant, usually derived from enzyme kinetics or from competition with a known ligand.

Molecules are shown by their SMILES. Active and inactive are the calls of the source.

Chain of Insulin-like growth factor 1 receptor (P08069 31-736 limits assumed): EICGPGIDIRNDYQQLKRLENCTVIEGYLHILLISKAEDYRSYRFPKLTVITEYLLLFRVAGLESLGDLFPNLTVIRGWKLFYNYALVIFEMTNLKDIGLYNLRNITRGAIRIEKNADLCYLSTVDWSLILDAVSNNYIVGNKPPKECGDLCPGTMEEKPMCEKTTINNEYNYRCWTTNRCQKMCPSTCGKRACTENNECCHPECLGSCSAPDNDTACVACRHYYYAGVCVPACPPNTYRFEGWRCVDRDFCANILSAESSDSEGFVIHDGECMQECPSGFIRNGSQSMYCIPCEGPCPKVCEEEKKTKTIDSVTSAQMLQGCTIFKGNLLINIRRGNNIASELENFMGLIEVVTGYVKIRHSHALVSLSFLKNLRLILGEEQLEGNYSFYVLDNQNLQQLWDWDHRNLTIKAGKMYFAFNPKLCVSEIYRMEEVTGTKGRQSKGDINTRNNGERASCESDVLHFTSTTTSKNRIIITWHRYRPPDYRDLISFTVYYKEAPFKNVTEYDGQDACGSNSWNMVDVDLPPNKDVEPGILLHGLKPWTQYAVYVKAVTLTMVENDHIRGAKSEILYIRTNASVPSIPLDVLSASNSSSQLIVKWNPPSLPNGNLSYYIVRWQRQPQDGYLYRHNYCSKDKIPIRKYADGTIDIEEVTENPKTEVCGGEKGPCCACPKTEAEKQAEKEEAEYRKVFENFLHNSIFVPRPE
Chain of Insulin-like growth factor 1 receptor (P08069 741-1367 limits assumed): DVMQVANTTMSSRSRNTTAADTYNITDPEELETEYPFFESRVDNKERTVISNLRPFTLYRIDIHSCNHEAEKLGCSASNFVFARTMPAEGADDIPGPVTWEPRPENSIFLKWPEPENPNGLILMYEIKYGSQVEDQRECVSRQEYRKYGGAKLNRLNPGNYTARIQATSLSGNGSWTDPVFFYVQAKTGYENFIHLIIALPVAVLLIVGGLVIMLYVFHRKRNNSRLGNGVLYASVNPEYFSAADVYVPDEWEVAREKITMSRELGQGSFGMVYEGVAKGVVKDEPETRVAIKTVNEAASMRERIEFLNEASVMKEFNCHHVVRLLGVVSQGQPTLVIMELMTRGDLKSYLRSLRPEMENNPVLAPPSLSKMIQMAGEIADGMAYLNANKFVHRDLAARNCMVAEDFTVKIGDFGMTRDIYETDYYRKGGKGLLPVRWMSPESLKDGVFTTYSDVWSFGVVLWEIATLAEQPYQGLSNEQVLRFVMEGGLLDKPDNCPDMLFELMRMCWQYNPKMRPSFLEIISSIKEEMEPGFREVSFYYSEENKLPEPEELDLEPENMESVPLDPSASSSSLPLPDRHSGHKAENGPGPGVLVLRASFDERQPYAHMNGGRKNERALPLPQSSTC
Chain of Phosphorylase b kinase gamma catalytic chain, liver/testis isoform (P15735 whole entry, canonical isoform): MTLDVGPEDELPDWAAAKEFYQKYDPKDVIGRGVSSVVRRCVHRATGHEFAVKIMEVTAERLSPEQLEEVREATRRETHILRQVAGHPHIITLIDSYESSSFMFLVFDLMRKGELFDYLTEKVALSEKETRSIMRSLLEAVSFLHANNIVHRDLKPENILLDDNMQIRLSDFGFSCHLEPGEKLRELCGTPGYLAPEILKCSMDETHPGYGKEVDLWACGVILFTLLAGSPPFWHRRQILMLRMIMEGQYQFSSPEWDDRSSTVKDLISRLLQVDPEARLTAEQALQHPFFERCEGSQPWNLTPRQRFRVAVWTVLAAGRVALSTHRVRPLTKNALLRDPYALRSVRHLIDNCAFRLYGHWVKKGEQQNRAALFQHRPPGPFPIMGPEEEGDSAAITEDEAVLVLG
Chain of Interleukin-1 receptor-associated kinase 1 (P51617 whole entry): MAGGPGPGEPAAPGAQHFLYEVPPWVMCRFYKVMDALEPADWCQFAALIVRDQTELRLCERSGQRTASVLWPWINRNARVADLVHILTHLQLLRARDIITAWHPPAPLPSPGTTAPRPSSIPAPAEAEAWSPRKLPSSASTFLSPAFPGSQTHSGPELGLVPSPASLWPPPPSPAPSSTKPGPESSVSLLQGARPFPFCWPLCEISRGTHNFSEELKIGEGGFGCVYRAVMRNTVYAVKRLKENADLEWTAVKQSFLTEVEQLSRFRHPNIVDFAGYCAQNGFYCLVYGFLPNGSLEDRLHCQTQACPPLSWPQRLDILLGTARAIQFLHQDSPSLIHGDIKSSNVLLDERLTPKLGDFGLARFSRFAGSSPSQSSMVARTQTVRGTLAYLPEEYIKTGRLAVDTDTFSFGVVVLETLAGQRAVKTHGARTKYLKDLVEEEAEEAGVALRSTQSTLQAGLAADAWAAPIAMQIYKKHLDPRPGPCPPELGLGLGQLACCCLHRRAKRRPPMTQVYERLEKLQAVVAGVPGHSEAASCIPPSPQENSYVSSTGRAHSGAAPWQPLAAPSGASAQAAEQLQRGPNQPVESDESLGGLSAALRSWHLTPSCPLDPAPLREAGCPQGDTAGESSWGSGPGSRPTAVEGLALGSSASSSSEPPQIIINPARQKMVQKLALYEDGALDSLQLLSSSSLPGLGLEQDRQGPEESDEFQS
Chain of SUMO-activating enzyme (Q9UBE0 whole entry): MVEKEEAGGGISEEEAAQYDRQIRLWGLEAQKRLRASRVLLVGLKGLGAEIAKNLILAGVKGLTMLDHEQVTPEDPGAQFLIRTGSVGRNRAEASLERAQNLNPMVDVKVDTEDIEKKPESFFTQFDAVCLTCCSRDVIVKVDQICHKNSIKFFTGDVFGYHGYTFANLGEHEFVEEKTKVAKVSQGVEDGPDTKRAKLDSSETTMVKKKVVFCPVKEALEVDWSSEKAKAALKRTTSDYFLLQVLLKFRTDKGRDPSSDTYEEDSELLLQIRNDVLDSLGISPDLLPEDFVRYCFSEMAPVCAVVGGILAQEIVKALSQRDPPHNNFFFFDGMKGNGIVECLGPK
Chain of SUMO-activating enzyme (Q9UBT2 whole entry): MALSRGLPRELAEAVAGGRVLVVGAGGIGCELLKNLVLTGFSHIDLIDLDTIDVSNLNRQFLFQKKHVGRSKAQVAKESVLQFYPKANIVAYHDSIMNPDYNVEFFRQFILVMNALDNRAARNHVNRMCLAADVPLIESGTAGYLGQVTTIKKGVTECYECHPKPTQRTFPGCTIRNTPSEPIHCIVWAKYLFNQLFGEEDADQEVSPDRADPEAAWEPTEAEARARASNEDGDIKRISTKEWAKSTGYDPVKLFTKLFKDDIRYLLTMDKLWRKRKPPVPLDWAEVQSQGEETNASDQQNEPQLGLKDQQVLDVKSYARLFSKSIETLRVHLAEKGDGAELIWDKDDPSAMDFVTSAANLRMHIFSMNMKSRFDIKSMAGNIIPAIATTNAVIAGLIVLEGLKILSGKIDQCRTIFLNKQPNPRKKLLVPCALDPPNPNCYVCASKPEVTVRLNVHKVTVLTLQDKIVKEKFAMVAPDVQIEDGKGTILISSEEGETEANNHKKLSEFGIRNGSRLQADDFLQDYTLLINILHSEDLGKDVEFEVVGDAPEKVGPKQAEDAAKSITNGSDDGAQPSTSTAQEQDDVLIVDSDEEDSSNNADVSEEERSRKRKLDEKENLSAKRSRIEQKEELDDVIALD
Chain of Maternal embryonic leucine zipper kinase (Q14680 whole entry): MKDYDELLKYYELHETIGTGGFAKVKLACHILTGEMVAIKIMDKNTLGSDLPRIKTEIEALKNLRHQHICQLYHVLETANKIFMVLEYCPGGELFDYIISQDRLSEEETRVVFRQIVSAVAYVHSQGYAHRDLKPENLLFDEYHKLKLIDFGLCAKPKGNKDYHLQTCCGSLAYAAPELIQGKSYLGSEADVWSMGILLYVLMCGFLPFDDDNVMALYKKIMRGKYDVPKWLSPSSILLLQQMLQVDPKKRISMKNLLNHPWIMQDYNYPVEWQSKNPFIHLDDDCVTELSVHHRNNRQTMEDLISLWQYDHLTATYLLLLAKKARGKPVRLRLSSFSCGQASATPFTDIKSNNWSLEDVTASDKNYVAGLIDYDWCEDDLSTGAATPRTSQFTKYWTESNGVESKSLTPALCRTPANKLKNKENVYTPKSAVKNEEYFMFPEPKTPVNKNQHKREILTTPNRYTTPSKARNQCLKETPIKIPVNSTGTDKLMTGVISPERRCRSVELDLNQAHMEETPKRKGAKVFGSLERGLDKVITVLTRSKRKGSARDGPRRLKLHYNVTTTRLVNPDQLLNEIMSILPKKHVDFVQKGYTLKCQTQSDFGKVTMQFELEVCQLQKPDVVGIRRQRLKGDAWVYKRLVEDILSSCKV
Chain of 5'-AMP-activated protein kinase catalytic subunit alpha-1 (Q13131 whole entry): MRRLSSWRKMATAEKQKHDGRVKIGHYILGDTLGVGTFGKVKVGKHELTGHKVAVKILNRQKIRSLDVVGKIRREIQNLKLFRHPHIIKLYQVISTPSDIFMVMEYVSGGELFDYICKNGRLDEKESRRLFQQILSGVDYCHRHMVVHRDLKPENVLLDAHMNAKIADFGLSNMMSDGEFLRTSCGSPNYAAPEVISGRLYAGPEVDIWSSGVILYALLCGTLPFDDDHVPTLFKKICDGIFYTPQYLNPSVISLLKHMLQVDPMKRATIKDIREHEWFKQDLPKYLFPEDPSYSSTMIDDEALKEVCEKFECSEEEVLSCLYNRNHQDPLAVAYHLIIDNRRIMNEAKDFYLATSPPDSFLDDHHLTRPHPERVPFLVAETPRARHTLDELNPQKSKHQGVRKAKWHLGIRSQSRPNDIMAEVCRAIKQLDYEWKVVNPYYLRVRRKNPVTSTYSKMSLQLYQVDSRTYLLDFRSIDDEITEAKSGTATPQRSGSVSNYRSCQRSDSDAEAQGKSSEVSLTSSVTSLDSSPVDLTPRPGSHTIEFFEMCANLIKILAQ
Chain of Calcium/calmodulin-dependent protein kinase type 1 (Q14012 whole entry): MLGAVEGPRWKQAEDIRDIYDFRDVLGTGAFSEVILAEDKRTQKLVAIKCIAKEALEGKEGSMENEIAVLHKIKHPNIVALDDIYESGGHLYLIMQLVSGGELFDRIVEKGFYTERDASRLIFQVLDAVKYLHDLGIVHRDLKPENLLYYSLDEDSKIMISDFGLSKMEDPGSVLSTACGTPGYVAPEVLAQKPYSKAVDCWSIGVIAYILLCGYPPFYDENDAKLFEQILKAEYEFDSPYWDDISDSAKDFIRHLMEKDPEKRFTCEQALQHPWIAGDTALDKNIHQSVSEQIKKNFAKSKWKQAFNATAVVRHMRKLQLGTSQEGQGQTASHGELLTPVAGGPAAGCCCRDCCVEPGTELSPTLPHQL

With `Cc1ccc(C(=O)NC2(O)C(=O)c3ccccc3C2=O)cc1C`, the results for the half-inhibitory concentration (IC50) (in assay [1]; on SUMO-activating enzyme; at Caspase-3) were 5.74 µM (active), 0.87 µM (active) and > 100 µM (inactive), respectively. Further, the AC50 in [2] was 6.83 µM (active).

On to `O=[N+]([O-])c1c(Nc2ccccn2)cc(Cl)c2nonc12`, for which the IC50 in [1] is 99.4 µM (inactive). Also, the EC50 in the assay with BJ was 5.14 µM (inconclusive).

With `CC[C@@H](C)[C@H](CNC)NC[C@@H](Cc1cccc2ccccc12)NCCc1cccc(C(F)(F)F)c1`, the AC50 in [3] is 9.13 µM (active); in assay [4] it was 79 µM (active). The concentration giving a half-maximal response (EC50) in assay [5] was 4.8 µM (active); with Streptococcus it was 7.12 µM (active).

Consider `Cc1ccc(S(=O)(=O)/N=C2\C=C(Nc3cccc(C(=O)O)c3)C(=O)c3ccccc32)cc1`, for which, in assay [1], the IC50 was 3.18 µM (active). Also, the AC50 in assay [4] was 2.57 µM (active); in [2], 0.422 µM (active). The concentration giving a half-maximal response (EC50) is 4.62 µM (active) in assay [5] and 14.3 µM (active) in the assay on Streptococcus.

In the case of `CC(C)(CO)CNc1nccc(-c2c(-c3ccc(F)cc3)nc3c(CC4CC4)nccn23)n1`, the Ki in assay [6] is > 5.01 µM (inactive); in assay [7] it was > 1.26 µM (inactive); in [8], > 6.31 µM (inactive); in assay [9] it was > 7.94 µM (inactive); in [10] it was > 2 µM (inactive); in assay [11], > 5.01 µM (inactive). In addition, the Ki in [12] was 0.0316 µM (active); in [13], > 1.58 µM (inactive); in assay [14] it was > 7.94 µM (inactive).
